Experiments:
[1] = test system: MMP-1, MMP-2, MMP-3, and MMP-9 in HUVEC conditioned medium; experiment: Gelatin and casein zymographies; assay type: cell-based, human; conditions: 10 mM EDTA in incubation buffer
Description: (§1) HUVECs were seeded at 80% confluence on 100-mm dishes in M199 medium. After 24 h, cells were rinsed with serum-free M199 twice and incubated in serum-free M199 with various concentrations of TMD23, VEGF (10 ng/mL), or PMA (70 ng/mL) for 12 h. The conditioned medium containing […] secreted proteins was analyzed by gelatin- and casein-based zymographies. The digested area appeared clear on a blue background, indicating the location of matrix metalloproteinase (MMP) activity. To further verify MMP caseinolytic activity, the casein-containing gel was incubated with incubation buffer containing 10 mM EDTA, an inhibitor of MMPs, to observe disappearance of the clear band. Plasminogen activator inhibitor (PAI) activity was measured by titrating samples with increasing amounts of tissue-type plasminogen activator (t-PA) (Boehringer Ingelheim) into a fixed volume of endothelial-cell-conditioned media.
as §1, with “zymographies. Lee O H, et al., Identification of angiogenic properties of insulin-like growth factor II in in vitro angiogenesis models. Brit J. Cancer. 2000; 82:385-391.” for “zymographies.”, “media. Shi G Y., et al., Plasmin and the regulation of tissue-type plasminogen activator biosynthesis in human endothelial cells. […]” for “media.”

HUVECs [2] = experiment: In vitro Matrigel angiogenesis assay (tube formation); assay type: cell-based, human; conditions: for Effect on the stimulatory effect of TMD23 on HUVEC tube formation: IgG 10 μg/mL, inhibitors 10 μM
Description: (§2) Growth-factor-reduced Matrigel (BD Biosciences) was thawed at 4° C. A total of 200 μL Matrigel was added to wells of a 48-well plate and polymerized 30 min at 37° C. Two hundred μL cell suspension containing various concentrations of VEGF, TMD23, or TMD23 in the presence of polyclonal rabbit anti-TMD23 antibody (10 μg/mL) or various signaling pathway inhibitors were plated onto Matrigel-coated wells at a density of 2.4×10^4 cells/well in M199 containing 10% FBS for 24 h at 37° C. in a 5% CO2 humidified atmosphere. Each concentration was tested in triplicate in the same plate, with wells photographed using a Leica camera (40× magnification). Tube length was quantified by measuring tubes in five randomly chosen fields from each well using MetaMorph software. Experiments were repeated at least three times.
as §2, with “5° k” for “5%”

[3] = test system: PAI activity in conditioned media of HUVECs; experiment: Plasminogen activator inhibitor (PAI) activity assay; assay type: cell-based, human; conditions: 12 h; 100 or 1000 ng/mL TMD23, 70 ng/mL PMA, 10 ng/mL VEGF
Description: as §1
as §1, with “zymographies. Lee O H, et al., Identification of angiogenic properties of insulin-like growth factor II in in vitro angiogenesis models. Brit J. Cancer. 2000; 82:385-391.” for “zymographies.”, “media. Shi G Y., et al., Plasmin and the regulation of tissue-type plasminogen activator biosynthesis in human endothelial cells. […]” for “media.”

HUVECs [4] = experiment: Chemotaxis assay (Transwell); assay type: cell-based, human; conditions: inhibitor or antibody present with TMD23
Description: (§3) The chemotactic motility of HUVECs was assayed using Transwell (Costar) with 6.5-mm diameter polycarbonate filters (8-μm pore size). The lower filter surface was coated with 10 μg gelatin (Sigma-Aldrich). Various concentrations of TMD23 in the absence or presence of 10 μg/mL polyclonal rabbit anti-TMD23 antibody or 10 ng/mL vascular endothelial growth factor (VEGF) (R & D Systems, Inc.) in M199 were placed in the lower wells. One hundred mL cell suspension containing 1×10^5 cells was loaded into each of upper well. The chamber was incubated at 37° C. for 4 h. Cells were fixed with methanol and stained with 4′,6′-diamidino-2-phenylindole (DAPI). Chemotaxis was quantified with optical microscopy (Leica) at 100× magnification using MetaMorph imaging software (Universal Imaging Corporation) by counting the cells that migrated to the filter's lower side. Five random fields in each well were counted. Each sample was assayed in triplicate, and assays were repeated three times. To determine the role of extracellular signal-regulated kinase 1/2 (ERK1/2), p38 mitogen-activated protein kinase (MAPK), and phosphatidylinositol 3-kinase (PI3 kinase)-protein kinase B/Akt (Akt) in TMD23-mediated cell migration, assays were performed in the presence of U0126, a MAPK/ERK kinase (MEK) inhibitor, SB 203580, a p38 MAPK inhibitor, and LY 294002, a PI3 kinase inhibitor. Cell viability as determined by trypan blue staining was not altered by treatment. 00126 was purchased from Promega, with SB 203580 and LY 294002 from Calbiochem.
as §3, with “hundred μL” for “hundred mL”, “MAPK/ERK kinase-(MEK)” for “MAPK/ERK kinase (MEK)”, “treatment. U0126” for “treatment. 00126”

[5] = test system: human umbilical vein endothelial cells (HUVECs); experiment: Cell proliferation assay (BrdU incorporation); assay type: cell-based; conditions: BrdU incorporation, FIG. 2A
Description: (§4) To evaluate the effect of TMD proteins on DNA synthesis in human umbilical vein endothelial cells (HUVECs), we performed a 5-bromo-2′-deoxyuridine (BrdU) incorporation assay with a commercial quantification kit (Roche Diagnostic GmbH) and manufacturer's protocol. Mitogenic effects induced by TMD proteins were also determined in the presence of polyclonal rabbit anti-TMD23 antibody (prepared by GlycoNex, Inc., Taiwan) that was purified by protein G-Sepharose column (Amersham Pharmacia Biotech AB).
as §4, with “(HUVECs),” for “(HUVECs), we performed”, “assay were performed” for “assay”

[6] = test system: Matrigel plugs in FVB mice; experiment: Murine angiogenesis assay (Matrigel plug); assay type: in vivo; conditions: for Appearance of Matrigel plugs, with heparin: day 4, plus heparin (30 U), TMD23 10, 100, or 1,000 ng, bFGF 250 ng, VEGF 50 ng; for Magnitude of angiogenic reaction with heparin versus without: gels supplemented with both angiogenic factor and heparin
Description: To assess angiogenic effects in vivo, growth-factor-reduced liquid Matrigel (0.5 mL) containing heparin (60 U/mL) and various concentrations of TMD23, bFGF or VEGF was subcutaneously injected into FVB mice near the abdominal midline. Matrigel with PBS plus heparin served as the negative control, with bFGF and VEGF plus heparin as the positive control. Four days after injection, mice were sacrificed and Matrigel plugs were surgically removed. For macroscopic analysis of angiogenesis, hemoglobin content in Matrigel was measured using Drabkin reagent 525 (Sigma-Aldrich). For histological analysis, rat anti-mouse CD31 (PECAM-1, platelet endothelial cell adhesion molecule-1) antibody (Pharmingen) was used. The same specimens were used for hematoxylin and eosin (H&E) staining.

[7] = test system: Matrigel plugs in FVB mice; experiment: Murine angiogenesis assay (Matrigel plug); assay type: in vivo
[8] = test system: human melanoma A2058 cells in Matrigel; experiment: Effect of TMD23 on tumor neoangiogenesis; assay type: in vivo, athymic nude mice; conditions: 18 days
Description: To assess TMD23 effects on tumor neoangiogenesis, 1×10^6 human melanoma A2058 cells (ATCC® CRL-11147) were mixed with Matrigel (0.5 mL) containing heparin (60 U/mL) and various concentrations of TMD23 and subcutaneously injected into athymic nude mice. Matrigel plugs were harvested after 18 days and frozen in liquid nitrogen. Blood vessels were detected by immunohistochemistry using anti-CD31 antibody as described above. Microvessel density (MVD) was calculated by counting six highly vascularized fields in each section (200× magnification; MetaMorph software).

## O=C(O)CN(CCN(CC(=O)O)CC(=O)O)CC(=O)O [EDTA, reference compound]
[1]
  Effect on the caseinolytic MMP-3 band: blocked specifically

## COC(=O)[C@@H](N)CCCNC(=N)N[N+](=O)[O-] [L-NAME, N^G-nitro-L-arginine methyl ester]
HUVECs [2]
  Effect on the stimulatory effect of TMD23 on HUVEC tube formation: blocked

## CCCCCCCCCCCCCC(=O)O[C@@H]1[C@@H](C)[C@@]2(O)[C@@H](C=C(CO)C[C@]3(O)C(=O)C(C)=C[C@@H]23)[C@@H]2C(C)(C)[C@]12OC(C)=O [PMA]
[3]
  PAI activity in conditioned media of HUVECs: decreased significantly

## C[S+]([O-])c1ccc(-c2nc(-c3ccncc3)c(-c3ccc(F)cc3)[nH]2)cc1 (stereo not shown) [SB 203580, reference compound]
HUVECs [4]
  Effect on the stimulatory effect of TMD23 on HUVEC migration: blocked
HUVECs [2]
  Effect on the stimulatory effect of TMD23 on HUVEC tube formation: blocked

## N#CC(=C(/N)Sc1ccccc1N)/C(C#N)=C(\N)Sc1ccccc1N [U0126, reference compound]
HUVECs [4]
  Effect on the stimulatory effect of TMD23 on HUVEC migration: blocked
HUVECs [2]
  Effect on the stimulatory effect of TMD23 on HUVEC tube formation: blocked

## TMD2: Recombinant human thrombomodulin fragment, amino acids Ala242-Cys480 of SEQ ID NO: 2, containing six EGF-like structures (D2)
[5]
  DNA synthesis in HUVECs: stimulated DNA synthesis

## basic fibroblast growth factor [bFGF, reference compound]
[6]
  Appearance of Matrigel plugs, with heparin: bright red
  Magnitude of angiogenic reaction with heparin versus without: considerably greater
[7]
  Appearance of Matrigel plugs, without heparin: pale
[8]
  Blood vessels in Matrigel plugs (CD31 staining): significantly more blood vessels
[8]; compared with A2058 cells alone
  Tumor size developed by Matrigel plugs containing A2058 cells: bigger

## vascular endothelial growth factor [VEGF, reference compound]
[6]
  Appearance of Matrigel plugs, with heparin: bright red
  Magnitude of angiogenic reaction with heparin versus without: considerably greater
[6]; plus heparin, compared with controls
  Hemoglobin content of recovered Matrigel plugs: significantly increased
[7]
  Appearance of Matrigel plugs, without heparin: pale
[3]
  PAI activity in conditioned media of HUVECs: decreased significantly
HUVECs [2]; 24 h, VEGF 10 ng/mL, TMD23 5 to 250 ng/mL
  HUVEC tube formation on Matrigel: formed elongated capillary-like structures, with complete networks
